We go through three compounds from US10495630B2, “Methods for the determination of compounds or compositions for the treatment of lipofuscin related diseases and compounds or compositions” (KATAIRO GMBH, priority 2014, dated 2019).

Read-outs that look alike come from different tables or passages of the source.

Series [1] deals with Abca4 (−/−) mice. The experiment in a line: A2E concentration in eyes of Abca4 (−/−) mice after intravitreal injection, HPLCMSMS
The class given is in vivo. The settings on record: for response vs control in vivo at 20000 µg/mL: Mus musculus, read-out: % of A2E relative to age matched untreated. An excerpt:
[…] […] The left eye was not treated and maintained as a control. Untreated eyes of age-matched mice lacking the Abca4 transporter were an additional control.
The concentration in each treated eye was then expressed as a percentage of the average concentration in all untreated eyes in the mice of the same age.
The left eye was not treated and maintained as a control. Untreated eyes of age-matched mice lacking the Abca4 transporter were an additional control.
The left eye was not treated and maintained as a control. Untreated eyes of age-matched mice lacking the Abca4 transporter were an additional control. […] Tryptophan is capable of absorbing and re-radiating light energy, as is riboflavin.
Water solutions were diluted 1:3 with acetonitrile and then sealed in vials for injection. 6 μL of the water acetonitrile solutions were injected onto a 2×50 mm Phenyl derived HPLC column (3 μm) and eluted with a gradient from 20% acetonitrile to 100% acetonitrile over 4 minutes at a flow rate of 500 μL/minute.

A short description of series [2]: Solubility remark on the test substance. The class given is physicochemical. Conditions: compared with the other tetracycline test substances, 20 mg/ml solution or suspension.
Series [3] has as its system human retinal pigment epithelium (RPE) cells. The experiment in a line: Degradation of lipofuscin in human RPE cells (micrographs after one week). The settings on record: test compound alone (SAD 50 μg/ml; cardioxane 10, 50 or 100 μM), one week incubation. The class given is cell-based. As to the method: To explore the role of the reactive chemical species the human retinal pigment epithelium (RPE) cells were treated with the super oxide anion donor (SAD) soraprazan ((7R,8R,9R)-2,3-Dimethyl-8-hydroxy-7-ethoxy-9-phenyl-7,8,9,10-tetrahydro-imidazo-[1,2-h][1,7]-naphthyridin)—a member of the THPE family—either alone or in combination with a known radical oxygen scavenger, cardioxane.
After growing the hRPE-cells to confluence, the test compounds were added to seven cell cultures and the cells were incubated at 37° C. and 5% CO2. The SAD was added to the cell cultures in a concentration of 50 μg/ml either alone or in combination with cardioxane in a concentration of 10 μM, 50 μM or 100 μM. Additionally, three cell cultures were incubated only with cardioxane in a concentration of 10 μM, 50 μM or 100 μM. As control, one cell culture was grown without test compounds.
After one week of incubation micrographs of the differently incubated RPE cells were taken as shown in FIG. 2A to H. In the original images, lipofuscin in cells is visible as a yellow-gold-orange fluorescent structure, before a blue background. In the grey scale reproduction in FIG. 2 the yellow-gold-orange structure appear light grey (yellow) or dark grey (gold-orange) before a grey background. Areas of degradation of lipofuscin in the hRPE cells appears as bright blue to whitish structures which appear white in the in the grey scale reproduction and are circled in FIG. 2A.
The bright blue structures are only observed in the experimental set up with SAD alone (FIG. 2A).

The subject of series [4] is melanin A2E particles. The experiment in a line: Assay for binding to A2E melanin particles. Details: species or system S. officinalis. Conditions: FIG. 3A; 37° C., 4 h. Here is the method: To study the binding of A2E to melanin, a suspension of 2 mg/ml natural melanin (S. officinalis) is prepared in PBS, pH 7.4. The melanin suspension is brought to 37° C. and sonicated for 15 min to form a uniform suspension. The melanin suspension (0.75 ml) is measured in aliquots into glass test tubes (12×75 mm) under continuous shaking to avoid sedimentation. The solution of A2E (0.75 ml) is added to the above-mentioned melanin aliquots, and the tubes will be incubated in a shaker incubator at 37° C. and 300 rpm for 4 h.
Controls are prepared by incubating A2E in the absence of melanin in incubation medium and by incubating melanin without A2E. Compounds are added to melanin suspension from stock solutions. After incubation, the suspensions are centrifuged at 13,000 rpm for 15 min at room temperature to remove the melanin granules. The supernatant is collected, diluted with acetonitrile and analyzed by an LC-MS/MS method to determine the concentration of […] in the supernatant. The kinetic parameters of binding study, i.e., maximal binding capacity (rmax) and the binding affinity (k) are determined for A2E according to the previously reported method (Cheruvu et al., 2008).
A high percentage of soraprazan and demethoxysoraprazan—about 46% and about 53%, respectively—are found bound to the melanin A2E particles.

Series [5] relates to RPE cells. Conditions: healthy monkeys, human RPE cells from aged donors, mouse model for Stargardt's Disease; EP 2080513 A1 and literature; cited from earlier work.
Series [6] can be described thus: In vitro (cell-free) degradation of A2E in aqueous solution, LCMS. Type of series: biochemical. The settings on record: for A2E / A2E (% control): A2E 20 μM + verteporfin 25 μM; for A2E (% control): control = A2E non-illuminated. Here is the method:
The degradation of N-retinylidene-N-retinylethanolamine (A2E)—component of lipofuscin—in an aqueous solution water was measured in the presence of potential degradation mediators and light illumination.
In a cell-free assay, A2E was dissolved in deionized H2O in a concentration of 20 μM and the solution was divided into two parts. To one part of the A2E solution verteporfin was added in an amount of 25 μM. […]
The amounts of A2E and its epoxides (A2E+O, A2E+2O) remaining were quantified by combined liquid chromatography and mass spectroscopy (LCMS) using the transitions indicated in Table 1.

In series [7] the test system is patient with putative dry AMD. Briefly: Clinical use of the photosensitizer to treat AMD, blue light laser retinal fluorescence. The class given is in vivo. The settings on record: intravenous 6 mg/m^2 or ca 4 μg intravitreal; days 7, 14 and 28 versus pre-treatment. As to the method:
A patient with putative dry AMD is examined and baseline retinal fluorescence is determined using the blue laser imaging device (Heidelberg engineering). The patient is subject to an intravenous dose of 6 mg/m^2 verteporf in by means of infusion of 30 ml over 10 minutes. An alternative to intravenous application is the direct intravitreal application of verteporf in. In this case, ca 4 μg of verteporfin is administered to an affected single eye. Fluorescence after 1, 2 and 4 weeks is compared with fluorescence at baseline. The eyes are treated alternately.
In the standard verteporfin treatment, fifteen minutes after the start of the infusion, a laser light at 689 nm delivered 50 J/cm^2 by application of an intensity of 600 mW/cm^2 over 83 seconds using a spot size with a diameter 1000 μm. […] After administration of verteporfin to a patient an exposure of the eyes of the patient to mild indoor light of about 500 lux. Alternatively, low filtering sunglasses can be used as a means to maintain an exposure of the eyes of the patient to 500 lux when outdoors. The exposure should be maintained for a period of at least 6 h per day.
Blue light laser retinal fluorescence is measured at days 7, 14 and 28 after treatment and compared with pre-treatment values. Specific reductions of retinal fluorescence>1-20% are on post-treatment examination. […]

Series [8] deals with Abca4 (−/−) mice. Briefly: Verteporfin injection into the vitreous of Abca4 (−/−) mice, micrographs of semi-thin sections. Conditions: 2 μl intravitreal, 12 month old mice, four weeks after injection, normal daylight. The class given is in vivo. Here is the method:
2 μl of a Verteporfin solution were injected into the vitreous of eyes from Abca4 (−/−) mice (12 month old) which lack the Abca4 transporter in the disk membranes of photoreceptors. Four weeks after injection the eyes of the mice were enucleated, embedded into the epoxy resin Epon™ and cut into semi-thin sections. As a control eyes of age-matched untreated mice lacking the Abca4 transporter were prepared in the same way. […] The RPE cell layer is marked by arrows in the Figure. Comparing the micrographs of the semi-thin section of eyes of untreated (FIG. 5a) and treated (FIG. 5b) mice the cytoplasm of the RPE cells of untreated mice appears much denser due to the targeting of confluent lipofuscin components. […] In treated eyes predominately melanin granules remained in the cytoplasm of RPE cells.

Series [9] deals with ARPE-19, a human RPE cell line that lacks melanin and lipofuscin. Briefly: Cellular verteporfin uptake in ARPE-19 cells. The class given is in vitro ADME. Conditions: for Verteporfin in the cells after incubation: medium with 278 nM Verteporfin. As to the method:
(§1) For testing factors influencing the cellular uptake of verteporfin to two cell types used:
ARPE-19, a human RPE cell line that lacks melanin and lipofuscin
(§2) The cells were treated with 200 μl of a culture medium that contained 278 nM Verteporfin for the indicated time, the culture medium was discarded, the cells trypsinized, resuspended in 500 μl medium and counted.

For series [10], the system named is HuRPE, RPE cells isolated from human donor eyes that contain melanin and lipofuscin. Briefly: Cellular verteporfin uptake in HuRPE cells. Type of series: in vitro ADME. The settings on record: for Verteporfin in the cells after incubation: medium with 278 nM Verteporfin. Here is the method:
as §1
HuRPE, RPE cells isolated from human donor eyes that contain melanin and lipofuscin
as §2

Where [11] appears, read: redox active small molecules and chelator, intravitreal 2 μl of 20 mg/ml, 16 hours after injection.
The mark [12] stands for this setting: dyes and porphyrins, intravitreal 2 μl of 2 mg/mL, one week after injection.

For `CN(C)[C@@H]1C(O)=C(C(N)=O)C(=O)[C@@]2(O)C(O)=C3C(=O)c4c(O)ccc(Cl)c4[C@@H](O)[C@H]3C[C@@H]12` [Demeclocycline], the response vs control in vivo at 20000 µg/mL in series [1] (168 h, tetracycline antibiotics, intravitreal 2 μl of 20 mg/ml, one week after injection) stood at 89%. For the same compound, the “Concentration A2E (μM) in the treated eye” value (“Concentration A2E (μM)” below) in series [1] (tetracycline antibiotics, intravitreal 2 μl of 20 mg/ml, one week after injection) is 37 µM. The Solubility result in series [2] is reported as “notably less soluble”.
In the case of `COCCO[C@@H]1c2ccn3c(C)c(C)nc3c2N[C@H](c2ccccc2)[C@H]1O` [Soraprazan, (7R,8R,9R)-2,3-Dimethyl-8-hydroxy-7-(2-methoxyethoxy)-9-phenyl-7,8,9,10-tetrahydro-imidazo[1,2-h] [1,7]naphthyridine], the “Degradation / removal of lipofuscin in hRPE cells” value in series [3] was “removal of lipofuscin”. In series [1] (setting [11]), the response vs control in vivo at 20000 µg/mL was 61% and the “Concentration A2E (μM)” value was 31 µM. Further, the “Proportion of compound bound to the melanin A2E particles after incubation” value in [4] is “about 46%”. Further, the “Removal of natural lipofuscin from RPE cells” value in [5] is “remove natural lipofuscin from RPE cells”. Also, the “Degradation of the lipofuscin component A2E in cell free systems” value in series [6] (cell free, in solution under illumination by visible light) is on record as “degraded”.
Consider verteporfin, for which the “% of A2E relative to age matched untreated” value in series [1] (setting [12]) is recorded as 90%. In addition, the “Concentration A2E (μM)” value in series [1] (setting [12]) came out at 27 µM. In addition, the “Specific reductions of retinal fluorescence” value in [7] is recorded as 1-20%. Besides, the “Proportion of compound bound to the melanin A2E particles after incubation” value in [4] is “bind to the A2E melanin particles although to a lower percentage”. Moreover, the “Removal of lipofuscin from the cytoplasm of RPE cells” value in series [8] is “substantial amounts of lipofuscin and melanolipofuscin were removed from the cytoplasm of RPE cells”. Also, the “Verteporfin in the cells after incubation” value in series [9] (ARPE-19, 1 h) turned out to be 159 nM; in series [9] (ARPE-19, 18 h) it was 351 nM; in series [10] (HuRPE, 1 h), 339 nM; in series [10] (HuRPE, 18 h), 1206 nM. Also, the “Increase of verteporfin concentration in the cells after 18 h” value was “about two-fold” in series [9] (ARPE-19, 18 h versus 1 h) and “about four-fold” in [10] (HuRPE, 18 h versus 1 h). Further, the “A2E” value in series [6] (689 nm, 83 s) worked out at 14.338 µM; in series [6] (non-illuminated, 5 min), 28.864 µM; in series [6] (white light, 5 min), 1.295 µM. Also, the “A2E (% control)” value in [6] (689 nm, 83 s) worked out at 44 % control; in series [6] (non-illuminated, 5 min) it was 89 % control; in series [6] (white light, 5 min) it was 4 % control. In series [10] (after 1 h of incubation), the “Concentration of verteporfin in HuRPE compared to ARPE-19” value is reported as “more than two-fold”.
